Patent EP3889262A1, “INHIBITION OF CASPASE-3 BY THE MICRORNA 126-5P” (Ludwig-Maximilians-Universität München, priority 2020, dated 2021)
Peptide text beside a SMILES is read from it. * marks the point of attachment. Cbz = O=C(OCc1ccccc1)*; CH2F = FC*

How the values were obtained:
HUVECs = assay: qPCR of miR-126 strand amounts and nucleo-cytoplasmic distribution in HUVECs; type: cell-based, human; conditions: for nuclear miR-126-5p: fractional qPCR, ivermectin with rapamycin, 3-methyladenine with KLF2 overexpression
Protocol: HUVECs were treated with rapamycin (Santa Cruz Biotechnology) at 5 µM, ivermectin (Santa Cruz Biotechnology) at […], 3-methyladenine (Sigma Aldrich) at 5 mM, and/or camptothecin (Abcam) at 500 nM. Unless stated otherwise, treatment was applied for 3 h to analyze early processes and to avoid activation of concomitant or compensatory mechanisms. RNA interference technology was applied to generate specific knockdowns with siRNA against ATG5, ATG7, Mex3a (Qiagen). Functional studies on miRNA function were carried with miScript miRNA mimics and inhibitors of miR-126-5p (Qiagen). Overexpression of KLF2 and Mex3a were obtained by pCMV-hKLF2 and pCMV-hMex3a plasmids. Transfections were performed by electroporation using Amaxa Nucleofector technology (Lonza) or Lipofectamine™ 2000 (ThermoFisher Scientific) according to the manufacturer's protocols.

recombinant caspase-3 = target: T1, recombinant caspase-3 (Homo sapiens, UniProt P42574); assay: Cell-free analysis of caspase-3 activity (substrate cleavage); type: biochemical; conditions: substrate cleavage by recombinant caspase-3, cell-free
T1 sequence (P42574 29-175 limits assumed): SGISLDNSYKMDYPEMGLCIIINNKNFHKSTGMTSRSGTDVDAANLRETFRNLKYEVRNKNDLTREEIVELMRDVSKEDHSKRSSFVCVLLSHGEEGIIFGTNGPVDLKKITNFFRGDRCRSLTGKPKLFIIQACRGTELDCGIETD
T1 sequence (P42574 176-277 limits assumed): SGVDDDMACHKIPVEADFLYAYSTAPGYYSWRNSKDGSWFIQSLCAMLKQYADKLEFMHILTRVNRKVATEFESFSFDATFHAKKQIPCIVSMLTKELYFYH

| Compound | nuclear miR-126-5p (HUVECs) | further results |
| --- | --- | --- |
| ivermectin | prevented | – |
| COC(=O)C[C@H](NC(=O)[C@H](C)NC(=O)[C@@H](NC(=O)OCc1ccccc1)C(C)C)C(=O)CF [Z-VAD-FMK] (Cbz-Val-Ala-Asp(OMe)-CH2F) | – | IC50 (recombinant caspase-3): 75.9 µM |
| CO/C1=C\C(C)=C\[C@@H](C)[C@@H](O)[C@@H](C)C/C(C)=C/C=C/[C@H](OC)[C@@H]([C@@H](C)[C@@H](O)[C@H](C)[C@@]2(O)C[C@@H](O)[C@H](C)[C@@H](C(C)C)O2)OC1=O [bafilomycin] | – | amount of miR-126-3p (HUVECs; ECs): restored |
| Cn1cnc(N)c2ncnc1-2 [3-methyladenine] | blunted | – |
